Results on one molecule are retold here after article PMC3927474, “Whole body synthesis rates of DHA from α-linolenic acid are greater than brain DHA accretion and uptake rates in adult rats” (Journal of Lipid Research, 2014).

The nature of data set [1]: Whole body fatty acids by GC-FID, balance study. It counts as in vivo, rat. Conditions: 15 wk diet. As for the experimental part:
Carcasses were thawed overnight in a refrigerator at 3°C, cut into pieces, and passed through a #12 hand grinder. After the whole body had passed through the grinder once, the homogenate was mixed together by hand and passed at least one more time through the grinder until the mixture was sufficiently homogeneous. Due to the small size of the pups all of the 21-day-old pup bodies were passed through the grinder together.
A portion of the whole body homogenate was weighed and further homogenized (done in duplicate for each 18-week-old rat and the baseline homogenate) using a Polytron benchtop homogenizer (Brinkman Instruments, Toronto, ON, Canada) in a mixture of chloroform:methanol:0.88%KCl (2:1:0.8 by volume) ([28]). The mixture was centrifuged at 500 g for 10 min, and the chloroform layer was extracted. New chloroform was added to the remaining aqueous phase, the mixture was once again centrifuged, and the chloroform layer was extracted and added to the previously extracted chloroform layer. This total lipid extract (TLE) was evaporated under N2, reconstituted in a known volume of chloroform, and stored under N2 at −80°C until further analysis.
A known amount of heptadecanoic acid (17:0; Nu-Check Prep, Elysian, MN) was added to the TLE. Samples were transmethylated using 14% boron trifluoride in methanol at 100°C for 1 h. Fatty acid methyl esters (FAMEs) were extracted with hexane and quantified using GC-FID. FAMEs were analyzed using a Varian-430 gas chromatograph (Varian, Lake Forest, CA) equipped with a Varian FactorFour capillary column (VF-23ms; 30 m × 0.25 mm interior diameter × 0.25 μm film thickness) and a FID. Samples were injected in splitless mode. The injector and detector ports were set at 250°C. […] The carrier gas was helium, set to a constant flow rate of 0.7 ml/min. Peaks were identified by retention times of authentic FAME standards (Nu-Chek Prep). The concentration of each fatty acid was calculated by comparison with the internal standard (17:0) ([29]). The concentrations were expressed on a per gram basis then multiplied by total weight of the tissue to determine the total amount of each fatty acid in the tissue.

For data set [2] the following is noted: rats; cited from earlier work.

Consider `CC/C=C\C/C=C\C/C=C\CCCCCCCC(=O)O` [ALA, α-linolenic acid], for which, in data set [1], the “Whole body fatty acids: 12:0” value turned out to be 23532 µmol, the “Whole body fatty acids: 14:0” value stood at 17606 µmol, the “Whole body fatty acids: 14:1n-7” value is 1331 µmol and the “Whole body fatty acids: 16:0” value stood at 44604 µmol. Besides, in data set [1], the “Whole body fatty acids: 16:1n-7” value turned out to be 16111 µmol, the “Whole body fatty acids: 18:0” value is listed as 6101 µmol, the “Whole body fatty acids: 18:1n-7” value stood at 7553 µmol and the “Whole body fatty acids: 18:1n-9” value turned out to be 38781 µmol. In data set [1], the “Whole body fatty acids: 18:2n-6” value was determined as 29104 µmol, the “Whole body fatty acids: 18:3n-3” value was 1557 µmol, the “Whole body fatty acids: 18:3n-6” value was 67 µmol and the “Whole body fatty acids: 20:1n-9” value is on record as 189 µmol. In data set [1], the “Whole body fatty acids: 20:2” value was 194 µmol, the “Whole body fatty acids: 20:3n-3” value amounted to 137 µmol, the “Whole body fatty acids: 22:4n-6” value is recorded as 155 µmol and the “Whole body fatty acids: 22:5n-3” value was 101 µmol. In data set [1], the “Whole body fatty acids: 22:5n-6” value is listed as 124 µmol, the “Whole body fatty acids: ARA (20:4n-6)” value came to 1954 µmol, the “Whole body fatty acids: DHA (22:6n-3)” value is given as 481 µmol and the “Whole body fatty acids: EPA (20:5n-3)” value is 76 µmol. Further, the “DHA synthesis rate from ALA (steady-state infusion)” value in data set [2] is 9.8 µmol/day.
